Results on 15 molecules are retold here after ChEMBL document CHEMBL5360622, “Leucettinibs, a Class of DYRK/CLK Kinase Inhibitors Inspired by the Marine Sponge Natural Product Leucettamine B” (J Med Chem, 2023).

The target of assay [1] is T1, Dual specificity tyrosine-phosphorylation-regulated kinase 2 (Homo sapiens, UniProt Q92630).
T1 sequence (Q92630 whole entry): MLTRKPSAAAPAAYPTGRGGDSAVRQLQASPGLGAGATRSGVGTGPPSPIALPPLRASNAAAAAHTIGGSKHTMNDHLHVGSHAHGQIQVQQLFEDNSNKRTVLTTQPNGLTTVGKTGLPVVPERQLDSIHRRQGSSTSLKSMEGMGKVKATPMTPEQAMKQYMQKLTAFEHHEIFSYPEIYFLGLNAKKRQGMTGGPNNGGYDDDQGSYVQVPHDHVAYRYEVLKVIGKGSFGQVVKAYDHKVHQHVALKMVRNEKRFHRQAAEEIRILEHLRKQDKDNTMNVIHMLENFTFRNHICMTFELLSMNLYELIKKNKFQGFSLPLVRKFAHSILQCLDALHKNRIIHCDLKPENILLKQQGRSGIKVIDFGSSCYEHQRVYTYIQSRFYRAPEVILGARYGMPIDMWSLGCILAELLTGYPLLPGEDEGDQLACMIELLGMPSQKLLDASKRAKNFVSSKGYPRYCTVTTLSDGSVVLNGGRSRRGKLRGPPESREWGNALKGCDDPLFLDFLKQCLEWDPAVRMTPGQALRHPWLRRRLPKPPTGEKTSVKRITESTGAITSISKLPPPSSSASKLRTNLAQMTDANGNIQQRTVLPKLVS

In assay [2] the target is T2, Dual specificity tyrosine-phosphorylation-regulated kinase 3 (Homo sapiens, UniProt O43781).
T2 sequence (O43781 whole entry): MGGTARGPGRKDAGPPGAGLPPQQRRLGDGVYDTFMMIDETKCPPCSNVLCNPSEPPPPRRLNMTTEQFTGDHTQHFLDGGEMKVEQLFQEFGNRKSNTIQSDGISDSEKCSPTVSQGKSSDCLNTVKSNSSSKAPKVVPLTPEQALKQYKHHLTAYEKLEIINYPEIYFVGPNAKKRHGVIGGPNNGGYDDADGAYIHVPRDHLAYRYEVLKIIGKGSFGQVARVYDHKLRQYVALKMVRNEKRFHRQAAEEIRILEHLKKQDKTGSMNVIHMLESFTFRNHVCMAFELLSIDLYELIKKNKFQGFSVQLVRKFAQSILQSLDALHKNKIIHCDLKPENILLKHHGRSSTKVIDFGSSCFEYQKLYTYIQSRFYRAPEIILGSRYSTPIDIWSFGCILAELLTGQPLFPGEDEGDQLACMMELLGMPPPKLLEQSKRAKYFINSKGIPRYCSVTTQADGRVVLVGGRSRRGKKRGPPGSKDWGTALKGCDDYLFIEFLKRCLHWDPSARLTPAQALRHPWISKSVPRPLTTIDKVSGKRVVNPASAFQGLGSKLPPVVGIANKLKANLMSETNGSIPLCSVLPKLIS

In assay [3] the target is T3, Dual specificity tyrosine-phosphorylation-regulated kinase 4 (Homo sapiens, UniProt Q9NR20).
T3 sequence (Q9NR20 whole entry): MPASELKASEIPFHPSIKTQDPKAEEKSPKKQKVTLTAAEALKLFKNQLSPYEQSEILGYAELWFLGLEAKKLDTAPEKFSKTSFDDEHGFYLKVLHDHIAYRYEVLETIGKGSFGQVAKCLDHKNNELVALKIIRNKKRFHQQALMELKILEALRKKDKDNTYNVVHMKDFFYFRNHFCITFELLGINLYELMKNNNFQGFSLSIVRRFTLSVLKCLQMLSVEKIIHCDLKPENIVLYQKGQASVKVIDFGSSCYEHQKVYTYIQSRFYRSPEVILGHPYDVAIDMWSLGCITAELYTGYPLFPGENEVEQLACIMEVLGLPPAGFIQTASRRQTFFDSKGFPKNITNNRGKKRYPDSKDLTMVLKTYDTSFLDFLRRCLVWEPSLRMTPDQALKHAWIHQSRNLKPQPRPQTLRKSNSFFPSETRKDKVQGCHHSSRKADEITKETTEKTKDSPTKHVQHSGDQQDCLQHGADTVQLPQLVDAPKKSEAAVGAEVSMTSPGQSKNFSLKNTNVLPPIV

The target of assay [4] is Glycogen synthase kinase-3 beta (Homo sapiens, UniProt P49841). In kind it is cell-based, Sf9.
Glycogen synthase kinase-3 beta, sequence (P49841 whole entry, canonical isoform): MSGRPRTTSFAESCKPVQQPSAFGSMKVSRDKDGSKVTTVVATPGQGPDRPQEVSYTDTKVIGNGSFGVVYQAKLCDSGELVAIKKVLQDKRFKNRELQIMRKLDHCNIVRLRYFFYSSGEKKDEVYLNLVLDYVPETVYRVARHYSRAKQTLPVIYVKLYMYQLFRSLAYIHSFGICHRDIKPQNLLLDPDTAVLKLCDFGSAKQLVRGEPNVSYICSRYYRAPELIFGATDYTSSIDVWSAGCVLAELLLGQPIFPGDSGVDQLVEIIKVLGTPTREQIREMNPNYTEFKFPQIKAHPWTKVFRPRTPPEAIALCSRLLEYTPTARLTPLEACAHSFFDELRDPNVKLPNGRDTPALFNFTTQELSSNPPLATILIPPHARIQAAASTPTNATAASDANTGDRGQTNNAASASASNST
Assay [5] concerns the target Casein kinase I isoform epsilon (Homo sapiens, UniProt P49674).
Assay [6] has as its target Cyclin-dependent kinase 5/CDK5 activator 1 (Homo sapiens, UniProt Q00535). In kind it is cell-based, Sf9.
Assay [7] deals with Dual specificity protein kinase CLK2 (Homo sapiens, UniProt P49760).
Dual specificity protein kinase CLK2, sequence (P49760 whole entry): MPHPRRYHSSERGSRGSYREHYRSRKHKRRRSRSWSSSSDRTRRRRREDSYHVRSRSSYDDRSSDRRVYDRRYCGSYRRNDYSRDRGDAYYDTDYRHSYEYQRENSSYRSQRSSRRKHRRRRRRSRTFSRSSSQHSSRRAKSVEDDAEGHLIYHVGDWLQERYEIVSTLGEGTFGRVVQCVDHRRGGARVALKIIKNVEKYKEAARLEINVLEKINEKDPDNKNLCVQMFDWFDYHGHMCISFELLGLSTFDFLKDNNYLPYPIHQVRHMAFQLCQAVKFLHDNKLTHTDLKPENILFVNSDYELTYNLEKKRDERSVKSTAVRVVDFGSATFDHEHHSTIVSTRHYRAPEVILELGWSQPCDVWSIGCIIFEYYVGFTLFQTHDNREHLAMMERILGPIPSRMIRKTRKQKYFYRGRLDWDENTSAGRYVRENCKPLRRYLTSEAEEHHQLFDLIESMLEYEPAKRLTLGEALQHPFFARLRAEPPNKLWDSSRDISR
The target in assay [8] is Dual specificity protein kinase CLK3 (Homo sapiens, UniProt P49761). In kind it is cell-based, Sf9.
Dual specificity protein kinase CLK3, sequence (P49761 whole entry): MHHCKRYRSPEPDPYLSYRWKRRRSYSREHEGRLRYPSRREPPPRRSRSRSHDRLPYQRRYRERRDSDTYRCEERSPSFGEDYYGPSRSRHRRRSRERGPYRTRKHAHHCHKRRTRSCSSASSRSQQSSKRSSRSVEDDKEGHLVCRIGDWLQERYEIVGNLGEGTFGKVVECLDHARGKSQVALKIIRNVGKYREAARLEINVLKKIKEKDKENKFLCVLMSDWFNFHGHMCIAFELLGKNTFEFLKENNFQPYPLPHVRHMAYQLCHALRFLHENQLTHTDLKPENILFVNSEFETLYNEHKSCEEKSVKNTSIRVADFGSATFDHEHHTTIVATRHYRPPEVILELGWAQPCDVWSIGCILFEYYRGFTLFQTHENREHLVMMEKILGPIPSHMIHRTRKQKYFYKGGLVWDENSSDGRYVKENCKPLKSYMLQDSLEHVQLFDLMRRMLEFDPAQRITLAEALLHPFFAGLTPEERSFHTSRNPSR
Assay [9] concerns the target Dual specificity protein kinase CLK4 (Homo sapiens, UniProt Q9HAZ1).
In assay [10] the target is Dual specificity protein kinase CLK1 (Homo sapiens, UniProt P49759). In kind it is cell-based, Sf9.
Dual specificity protein kinase CLK1, sequence (P49759 whole entry): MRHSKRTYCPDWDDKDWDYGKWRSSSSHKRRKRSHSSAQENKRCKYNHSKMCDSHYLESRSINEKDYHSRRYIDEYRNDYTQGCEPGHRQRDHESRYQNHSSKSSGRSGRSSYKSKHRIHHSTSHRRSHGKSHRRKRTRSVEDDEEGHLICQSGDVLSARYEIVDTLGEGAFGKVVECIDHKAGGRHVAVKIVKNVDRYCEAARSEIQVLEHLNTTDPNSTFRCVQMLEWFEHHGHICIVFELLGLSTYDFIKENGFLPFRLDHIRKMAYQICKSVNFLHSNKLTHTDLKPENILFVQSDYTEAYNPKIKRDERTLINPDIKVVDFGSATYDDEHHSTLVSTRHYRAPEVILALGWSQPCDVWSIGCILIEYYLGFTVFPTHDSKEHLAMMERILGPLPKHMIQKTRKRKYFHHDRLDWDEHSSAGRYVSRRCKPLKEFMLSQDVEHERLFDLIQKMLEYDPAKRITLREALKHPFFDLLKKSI
The target of assay [11] is Dual specificity tyrosine-phosphorylation-regulated kinase 1A (Homo sapiens, UniProt Q13627).

Structures are written as SMILES. Where only a bound is given, the exact number is not on record here.

Cyclin-dependent kinase 5/CDK5 activator 1, sequence (Q00535 whole entry): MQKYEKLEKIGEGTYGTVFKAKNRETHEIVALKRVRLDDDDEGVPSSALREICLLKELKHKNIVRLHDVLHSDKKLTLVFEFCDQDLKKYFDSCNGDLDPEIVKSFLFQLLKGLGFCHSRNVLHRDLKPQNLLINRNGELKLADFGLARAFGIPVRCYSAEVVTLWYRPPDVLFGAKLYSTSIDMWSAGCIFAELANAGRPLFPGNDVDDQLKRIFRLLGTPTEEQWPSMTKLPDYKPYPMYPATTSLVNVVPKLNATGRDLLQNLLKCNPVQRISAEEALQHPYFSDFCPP
Cyclin-dependent kinase 5/CDK5 activator 1, sequence (Q15078 whole entry, further chain): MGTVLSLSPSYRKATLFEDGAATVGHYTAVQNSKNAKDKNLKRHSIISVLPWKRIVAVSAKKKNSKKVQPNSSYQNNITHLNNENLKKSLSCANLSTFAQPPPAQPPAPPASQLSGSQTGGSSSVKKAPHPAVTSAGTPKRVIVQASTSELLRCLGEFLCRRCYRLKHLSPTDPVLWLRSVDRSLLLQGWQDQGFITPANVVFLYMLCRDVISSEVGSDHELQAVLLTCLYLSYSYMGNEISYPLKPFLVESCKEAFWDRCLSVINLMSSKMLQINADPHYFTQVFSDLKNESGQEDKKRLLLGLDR
Casein kinase I isoform epsilon, sequence (P49674 whole entry, canonical isoform): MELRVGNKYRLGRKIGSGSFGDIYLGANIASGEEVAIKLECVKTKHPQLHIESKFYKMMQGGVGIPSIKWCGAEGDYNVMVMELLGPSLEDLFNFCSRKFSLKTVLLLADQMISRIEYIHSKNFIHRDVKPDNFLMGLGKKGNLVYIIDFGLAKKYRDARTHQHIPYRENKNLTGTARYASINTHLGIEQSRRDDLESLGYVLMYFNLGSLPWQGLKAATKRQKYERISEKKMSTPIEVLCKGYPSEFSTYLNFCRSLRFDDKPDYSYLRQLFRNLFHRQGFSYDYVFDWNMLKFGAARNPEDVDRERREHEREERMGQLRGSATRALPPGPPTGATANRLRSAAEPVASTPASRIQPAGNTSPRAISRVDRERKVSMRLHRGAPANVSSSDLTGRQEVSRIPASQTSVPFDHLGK
Dual specificity protein kinase CLK4, sequence (Q9HAZ1 whole entry): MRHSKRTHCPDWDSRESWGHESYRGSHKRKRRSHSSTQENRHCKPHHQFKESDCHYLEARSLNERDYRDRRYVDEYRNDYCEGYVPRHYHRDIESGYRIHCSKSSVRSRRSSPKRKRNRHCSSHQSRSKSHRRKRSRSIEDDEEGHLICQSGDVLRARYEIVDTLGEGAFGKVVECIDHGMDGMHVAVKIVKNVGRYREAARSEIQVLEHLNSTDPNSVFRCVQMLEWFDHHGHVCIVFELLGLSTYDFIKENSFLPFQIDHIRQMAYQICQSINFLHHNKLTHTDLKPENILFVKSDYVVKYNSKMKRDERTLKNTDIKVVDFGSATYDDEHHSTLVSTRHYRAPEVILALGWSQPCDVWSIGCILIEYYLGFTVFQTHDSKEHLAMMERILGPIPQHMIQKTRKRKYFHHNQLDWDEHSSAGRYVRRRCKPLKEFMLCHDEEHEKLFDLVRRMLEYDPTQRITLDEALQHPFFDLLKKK

For `Cn1cnc2ccc(/C=C3\N=C(NC45CC6CC(CC(C6)C4)C5)NC3=O)cc21`, the IC50 is 95 nM in [1]; 68 nM in assay [2]; 80 nM in assay [3]; 1540 nM in assay [4]; more than 10000 nM in [5]; 650 nM in [6]. Besides, the IC50 was determined as 3 nM in [7]; 1060 nM in assay [8]; 3 nM in assay [9]; 9 nM in assay [10]; 7 nM in assay [11].

Turning to `O=C1NC(NC2CCCCCC2)=N/C1=C\c1ccc2ncoc2c1`, the 50% inhibitory concentration (IC50) in [1] is 566 nM; in assay [2], 1140 nM; in [3] it was 617 nM; in assay [4], 3020 nM; in [5], more than 10000 nM; in assay [6] it was more than 10000 nM. Moreover, the IC50 in assay [7] stood at 174 nM; in assay [8] it was 285 nM; in assay [9] it was 11 nM; in assay [10] it was 18 nM; in assay [11], 13 nM.

Consider `Cn1ccc2cc(/C=C3\N=C(NC4CCCCCC4)NC3=O)ccc21`, for which the IC50 in assay [1], in assay [2], in assay [3], in [4], in assay [5] and in [6] was more than 10000 nM each time. Besides, the IC50 in assay [7], in [8], in assay [9], in assay [10] and in assay [11] was more than 10000 nM in each case.

Turning to `O=C1NC(NC2CCCCC2)=N/C1=C\c1ccc2c(c1)CCO2`, the IC50 in assay [1] was 3390 nM; in [3], 2990 nM; in [4] it was more than 10000 nM; in assay [5], more than 10000 nM; in assay [6] it was more than 10000 nM; in assay [7], 1250 nM. Also, the IC50 in [8] was determined as 5380 nM; in assay [9] it was 52 nM; in assay [10], 104 nM; in assay [11], 237 nM.

As to `O=C1NC(NC23CC4CC(CC(C4)C2)C3)=N/C1=C\c1ccc2ncoc2c1`, the IC50 in assay [1] is 62 nM; in [2], 38 nM; in assay [4], 202 nM; in assay [5], more than 10000 nM; in [6], 280 nM; in [8], 8530 nM. Further, the IC50 came out at 3 nM in assay [9], 8 nM in [10] and 1 nM in assay [11].

In the case of `O=C1NC(NC23CC4CC(CC(C4)C2)C3)=N/C1=C\c1ccc2[nH]cnc2c1`, the IC50 is 51 nM in assay [1]; 218 nM in assay [3]; more than 10000 nM in assay [4]; more than 10000 nM in assay [6]; 2 nM in assay [7]; 7570 nM in assay [8]. Further, the 50% inhibitory concentration (IC50) in [9] was 2 nM; in assay [10], 5 nM; in assay [11], 2 nM.

For `CN1CCN(c2ccc(NC3=N/C(=C\c4ccc5c(c4)OCCO5)C(=O)N3)cc2)CC1`, the IC50 in assay [1] is 8 nM; in assay [2], 14 nM; in assay [4], 120 nM; in assay [7], 67 nM; in assay [8], 1100 nM; in assay [9], 19 nM. Also, the IC50 in [10] came out at 17 nM; in assay [11] it was 7 nM.

Consider `Cn1ncc2cc(/C=C3\N=C(NC4CCCCCC4)NC3=O)ccc21`, for which the IC50 is 1580 nM in [1]; 6090 nM in [3]; more than 10000 nM in assay [4]; more than 10000 nM in assay [5]; more than 10000 nM in [6]; more than 10000 nM in assay [7]. Also, the IC50 in [8] is 381 nM; in [9] it was 430 nM; in assay [10], 1240 nM; in assay [11], 37 nM.

`O=C1NC(NC2CCCCC2)=N/C1=C\c1ccc2c(c1)OCO2`: the IC50 in [2] was 2080 nM; in [3], 1320 nM; in assay [4] it was 8400 nM; in assay [5] it was more than 10000 nM; in assay [6], more than 10000 nM; in [7], 955 nM. The IC50 in assay [8] was found to be 4280 nM; in assay [9] it was 43 nM; in assay [10] it was 92 nM; in assay [11] it was 74 nM.

With `O=C1NC(NC23CC4CC(CC(C4)C2)C3)=N/C1=C\c1ccc2[nH]ncc2c1`, the IC50 in assay [1] was 260 nM; in [2], 74 nM; in assay [3], 663 nM; in [4] it was 7770 nM; in assay [6], more than 10000 nM; in assay [7], 14 nM. For the same molecule, the IC50 in assay [8] is 1080 nM; in assay [9], 4 nM; in assay [10], 5 nM; in assay [11], 10 nM.

As to `O=C1NC(NC23CC4CC(CC(C4)C2)C3)=N/C1=C\c1ccc2c(c1)CCO2`, the 50% inhibitory concentration (IC50) in assay [1] was 1630 nM; in assay [3], 626 nM; in assay [4], more than 10000 nM; in assay [5] it was more than 10000 nM; in assay [6], more than 10000 nM; in assay [7] it was 17 nM. Further, the IC50 was more than 10000 nM in [8], 66 nM in [9], 102 nM in assay [10] and 50 nM in assay [11].

As for `O=C1NC(NC23CC4CC(CC(C4)C2)C3)=N/C1=C\c1ccc2c(c1)OCO2`, the IC50 in assay [1] is 183 nM; in assay [3] it was 1640 nM; in assay [4] it was more than 10000 nM; in [5], more than 10000 nM; in assay [6] it was more than 10000 nM; in [7], 96 nM. Besides, the IC50 is more than 10000 nM in assay [8], 4 nM in [9], 17 nM in assay [10] and 2 nM in assay [11].

`COc1ccc(/C=C2\N=C(Nc3ccc(N4CCN(C)CC4)cc3)NC2=O)cc1O`: the IC50 in assay [1] is 15 nM; in assay [2], 10 nM; in [4], 200 nM; in assay [7] it was 30 nM; in assay [8], 700 nM; in assay [9] it was 12 nM. Also, the IC50 in [10] came out at 12 nM; in [11], 14 nM.

For `Cn1ncc2cc(/C=C3\N=C(NC4CCCCC4)NC3=O)ccc21`, the IC50 in [1] is 2540 nM; in assay [3] it was more than 10000 nM; in [4] it was more than 10000 nM; in [5] it was more than 10000 nM; in assay [6] it was more than 10000 nM; in [7], 7770 nM. The IC50 in assay [8] was found to be 1710 nM; in [9], 649 nM; in assay [10], 2510 nM; in assay [11], 141 nM.

On to `O=C1NC(NC23CC4(F)CC(F)(CC(F)(C4)C2)C3)=N/C1=C\c1ccc2ncsc2c1`, for which the IC50 in [1] is 10 nM; in assay [2], 2 nM; in assay [3], 146 nM; in assay [4], 94 nM; in assay [5] it was 62 nM; in [6], 25 nM. The IC50 in [8] is 90 nM; in assay [9], 4 nM; in [10] it was 11 nM; in assay [11] it was 1 nM.
